The results in this text go back to ChEMBL document CHEMBL5131481, “Topoisomerase IIα inhibitory and antiproliferative activity of dihydroxylated 2,6-diphenyl-4-fluorophenylpyridines: Design, synthesis, and structure-activity relationships” (Bioorg Med Chem Lett, 2022).

In experiment [1] the target is DNA topoisomerase 2-alpha (Homo sapiens) (UniProt P11388). The experiment in a line: Inhibition of topoisomerase 2alpha (unknown origin) assessed as relaxation of supercoiled plasmid pBR322 DNA at 100 uM relative to control.
Experiment [2] has the same target. The experiment in a line: Inhibition of topoisomerase 2alpha (unknown origin) assessed as relaxation of supercoiled plasmid pBR322 DNA at 20 uM relative to control.
The test system of a further experiment is DU-145. The experiment can be described thus: Antiproliferative activity against human DU-145 cells assessed as inhibition of cell proliferation. It is filed as functional, cell-based.
A further experiment relates to HCT-15. The experiment can be described thus: Antiproliferative activity against human HCT-15 cells assessed as inhibition of cell proliferation. It is filed as functional, cell-based.
Another experiment has as its system T47D. The experiment in a line: Antiproliferative activity against human T47D cells assessed as inhibition of cell proliferation. It is filed as functional, cell-based.
In another experiment the test system is HeLa. The experiment in a line: Antiproliferative activity against human HeLa cells assessed as inhibition of cell proliferation. It is filed as functional, cell-based.

Molecules are shown by their SMILES.

DNA topoisomerase 2-alpha (Homo sapiens), sequence (P11388 whole entry): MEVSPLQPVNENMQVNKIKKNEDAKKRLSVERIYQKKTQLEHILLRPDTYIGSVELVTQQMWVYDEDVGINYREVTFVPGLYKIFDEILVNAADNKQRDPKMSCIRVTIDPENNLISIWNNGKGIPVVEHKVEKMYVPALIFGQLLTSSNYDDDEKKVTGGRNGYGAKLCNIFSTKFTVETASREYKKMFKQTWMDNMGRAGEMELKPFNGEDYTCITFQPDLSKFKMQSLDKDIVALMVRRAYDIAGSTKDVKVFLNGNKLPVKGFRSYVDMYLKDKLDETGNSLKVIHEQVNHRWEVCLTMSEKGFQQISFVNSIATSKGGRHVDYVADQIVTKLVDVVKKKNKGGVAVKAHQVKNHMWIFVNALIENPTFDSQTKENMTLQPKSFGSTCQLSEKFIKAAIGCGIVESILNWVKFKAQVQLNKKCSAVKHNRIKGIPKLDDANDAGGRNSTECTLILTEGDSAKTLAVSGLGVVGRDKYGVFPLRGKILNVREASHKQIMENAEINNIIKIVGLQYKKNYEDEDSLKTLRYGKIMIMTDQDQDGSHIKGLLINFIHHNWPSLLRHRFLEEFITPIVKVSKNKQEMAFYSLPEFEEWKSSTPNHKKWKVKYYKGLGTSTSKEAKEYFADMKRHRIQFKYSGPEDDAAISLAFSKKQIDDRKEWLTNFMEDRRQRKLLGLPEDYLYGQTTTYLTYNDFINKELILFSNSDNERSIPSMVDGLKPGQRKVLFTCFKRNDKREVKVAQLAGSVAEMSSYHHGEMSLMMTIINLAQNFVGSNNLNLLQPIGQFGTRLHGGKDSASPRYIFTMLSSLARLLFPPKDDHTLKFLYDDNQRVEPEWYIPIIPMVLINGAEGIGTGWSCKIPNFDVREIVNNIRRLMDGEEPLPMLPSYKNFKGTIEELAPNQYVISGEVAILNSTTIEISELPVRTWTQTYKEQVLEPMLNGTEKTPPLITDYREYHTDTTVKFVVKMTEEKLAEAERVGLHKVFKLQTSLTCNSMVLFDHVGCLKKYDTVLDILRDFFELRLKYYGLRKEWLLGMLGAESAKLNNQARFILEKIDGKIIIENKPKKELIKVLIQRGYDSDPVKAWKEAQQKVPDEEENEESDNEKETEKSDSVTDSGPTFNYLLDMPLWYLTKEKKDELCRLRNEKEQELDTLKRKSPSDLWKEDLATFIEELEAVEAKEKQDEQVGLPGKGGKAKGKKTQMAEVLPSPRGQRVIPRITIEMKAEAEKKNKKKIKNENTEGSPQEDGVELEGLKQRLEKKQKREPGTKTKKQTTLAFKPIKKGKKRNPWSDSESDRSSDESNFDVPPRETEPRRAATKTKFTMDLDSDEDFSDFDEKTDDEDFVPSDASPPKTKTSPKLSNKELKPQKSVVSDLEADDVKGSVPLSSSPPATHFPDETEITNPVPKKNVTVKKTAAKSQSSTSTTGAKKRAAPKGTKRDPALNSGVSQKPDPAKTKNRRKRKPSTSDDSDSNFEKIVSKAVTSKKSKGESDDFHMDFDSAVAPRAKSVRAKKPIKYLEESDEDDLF

Take `Oc1cccc(-c2cc(-c3ccc(F)cc3)cc(-c3cccc(O)c3)n2)c1`: the inhibition in experiment [1] is 36.6%; in experiment [2] it was 4.9%. Besides, the IC50 with DU-145 was determined as 7.12 µM; in the experiment on HCT-15 it was 6.31 µM; with T47D it was 6.87 µM; with HeLa it was 1.28 µM.

For `Oc1ccc(-c2cc(-c3cccc(F)c3)cc(-c3cccc(O)c3)n2)cc1`, the inhibition in experiment [1] stood at 73.9%; in experiment [2], 36.1%. Moreover, the IC50 stood at 2.7 µM in the experiment on DU-145, 3.07 µM with HCT-15, 3.51 µM with T47D and 14.2 µM in the experiment on HeLa.

Regarding `Oc1ccc(-c2cc(-c3ccccc3OC(F)(F)F)cc(-c3cccc(O)c3)n2)cc1`, the inhibition in experiment [1] is 45.2%; in experiment [2] it was 4.4%. The IC50 in the experiment with DU-145 was 7.76 µM; in the experiment on HCT-15, 2.31 µM; in the experiment on T47D, 7.3 µM; in the experiment on HeLa, 5.8 µM.

With `Oc1ccc(-c2cc(-c3ccc(F)cc3)cc(-c3cccc(O)c3)n2)cc1`, the inhibition in experiment [1] amounted to 43.7%; in experiment [2], 30.4%. Further, the concentration for half-maximal inhibition (IC50) was 15.2 µM in the experiment on DU-145, 5.02 µM with HCT-15, 5 µM in the experiment on T47D and 8.08 µM in the experiment with HeLa.

As for `Oc1cccc(-c2cc(-c3ccccc3OC(F)(F)F)cc(-c3cccc(O)c3)n2)c1`, the inhibition is 33.4% in experiment [1] and 6.7% in experiment [2]. Further, the half-inhibitory concentration (IC50) in the experiment with DU-145 worked out at 5.42 µM; in the experiment with HCT-15 it was 4.22 µM; in the experiment on T47D it was 7.95 µM; in the experiment on HeLa, 16.7 µM.

As for `Oc1ccc(-c2cc(-c3ccc(C(F)(F)F)cc3)cc(-c3cccc(O)c3)n2)cc1`, the inhibition in experiment [1] amounted to 44.1%; in experiment [2] it was 4.1%. Besides, the IC50 with DU-145 was greater than 50 µM; in the experiment with HCT-15, 6.44 µM; in the experiment with T47D, 2.87 µM; in the experiment on HeLa it was 17.3 µM.
